Data reported in paper PMC10824102, “Identification of small molecule inhibitors of G3BP-driven stress granule formation” (The Journal of Cell Biology, 2024).

Tests used:
[1] = tested on: preformed stress granules in U2OS cells stably expressing G3BP1-GFP; assay: Post-addition: dissolution of preformed arsenite-induced stress granules; type: cell-based; details: 50 μM added after 30 min of 250 μM NaAsO2
Description: For post-addition of compounds, U2OS cells stably expressing G3BP1-GFP were seeded into eight-well Lab-Tek chambered cover glass (Nunc) for sodium arsenite experiments or 35-mm glass-bottom dishes (MatTek) for heat shock experiments. Immediately prior to the experiment, media was replaced with FluoroBrite DMEM media (Gibco) in each well supplemented with 10% FBS and 4 mM L-glutamine; for sodium arsenite experiments, arsenite was added at a final concentration of 250 μM. Cells were then placed on a microscope on which 37°C temperature and 5% CO2 were maintained using a Bold Line Cage Incubator (Okolab) and an objective heater (Bioptechs), and 5–10 xy fields were stored. For sodium arsenite experiments, acquisition began immediately after finding all xy positions, 4 min after the addition of sodium arsenite. 30 min after arsenite was added, 250 μl FluoroBrite DMEM with 250 μM sodium arsenite and 0.1 mM (2×) G3I compound (vortexed for 5 s) was added to the sample. For heat shock experiments, each xy position was imaged every minute. At 2 min into the acquisition, the objective heater was ramped to 43°C. Following this, 250 μM (5×) G3I compound was prepared in FluoroBrite DMEM and vortexed for 15 s. This solution was kept on a 47°C heater near the microscope along with a pipette tip. […]

[2] = biological target: T1, interaction between G3BP1 and endogenous caprin 1 (Homo sapiens, UniProt Q13283); assay: Coimmunoprecipitation of G3BP1-GFP with endogenous caprin 1 in U2OS lysates; type: biochemical; details: increasing concentrations added to U2OS G3BP1-GFP lysates, GFP IP
T1 construct: expressed in transfected cells; host or cells: U2OS cells stably expressing G3BP1-GFP (lysate)
Description: (§1) U2OS cells expressing G3BP1-GFP were grown in 3-cm dishes to 100% confluency, at which point cells were collected and pelleted at 400 × g for 5 min. Pellets were either stored at −80°C or processed the same day by lysing with 200 μl in vivo lysis buffer (150 mM NaCl, 50 mM Tris [pH 7.5], 1 mM EDTA, 0.5% NP-40, and 10% glycerol, supplemented with 1 protease inhibitor tablet [11836170001; Roche]). Lysates were centrifuged at 13,000 × g at 4°C for 15 min, after which supernatants were transferred to a new tube and diluted with 200 μl lysis buffer containing indicated concentrations of G3I compounds. The mixture was then incubated with GFP-Trap (ChromoTek GFP-Trap Magnetic Agarose; Proteintech; gtma) for 2 h at 4°C. Beads were washed three times with lysis buffer, then incubated with 1× SDS sample buffer supplemented with 10% 2-mercaptoethanol, and boiled for 5 min at 95°C. Lysates were subjected to SDS-PAGE and then immunoblotted.
(§2) Samples were separated by SDS-PAGE and transferred to membranes. […] Membranes were visualized and quantified with an Odyssey Fc imaging system (LI-COR) and normalized to the amount of G3BP1 immunoprecipitated.

[3] = biological target: T2, interaction between G3BP1 and endogenous USP10 (Homo sapiens, UniProt Q13283); assay: Coimmunoprecipitation of G3BP1-GFP with endogenous USP10 in U2OS lysates; type: biochemical; details: increasing concentrations added to U2OS G3BP1-GFP lysates, GFP IP
T2 construct: expressed in transfected cells; host or cells: U2OS cells stably expressing G3BP1-GFP (lysate)
Description: as §1, §2

T1 sequence (Q13283 whole entry): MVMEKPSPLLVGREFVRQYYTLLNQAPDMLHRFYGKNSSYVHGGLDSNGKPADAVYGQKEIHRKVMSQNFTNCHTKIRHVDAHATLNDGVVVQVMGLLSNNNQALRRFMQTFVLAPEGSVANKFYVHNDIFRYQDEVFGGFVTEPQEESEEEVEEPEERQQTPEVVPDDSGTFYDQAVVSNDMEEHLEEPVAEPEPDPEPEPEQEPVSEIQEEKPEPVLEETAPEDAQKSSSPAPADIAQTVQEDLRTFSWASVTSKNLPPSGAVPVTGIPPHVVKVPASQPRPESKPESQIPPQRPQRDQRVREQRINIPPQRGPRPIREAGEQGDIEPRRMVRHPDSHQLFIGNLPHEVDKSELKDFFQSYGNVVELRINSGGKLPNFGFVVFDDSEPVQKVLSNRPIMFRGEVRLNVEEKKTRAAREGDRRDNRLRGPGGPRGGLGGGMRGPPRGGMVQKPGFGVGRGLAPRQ
T2 sequence (Q13283 whole entry): as above

| SMILES | reduction of stress granule area (preformed granules) [1] [%] | interaction between G3BP1 and endogenous caprin 1 [2] | interaction between G3BP1 and endogenous USP10 [3] |
| --- | --- | --- | --- |
| COCCC(NC(=O)C(C)NC(=O)C(NC(=O)C(NC(=O)C(F)CC(C)(C)C)C(C)(C)O)C(C)c1ccccc1)C(=O)N(C)Cc1ccccc1 (stereo not drawn) [G3Ia] | ~74 | – | – |
| CC(NC(=O)C(NC(=O)C(NC(=O)CCC(C)(C)C)C(C)(C)O)C(C)c1ccccc1)C(=O)N1CCCC1c1ccccc1 (stereo not drawn) [G3Ib] | ~84 | dose-dependent reduction | dose-dependent reduction |
| CC(NC(=O)C(NC(=O)C(NC(=O)CCC(C)(C)C)C(C)(C)O)C(C)c1ccccc1)C(=O)N1CCCC1c1ccccc1 (stereo not drawn) [G3Ib′] | – | no such effect | no such effect |
